The results in this text go back to ChEMBL document CHEMBL1201862, “PubChem BioAssay data set” (2004).

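Values below derive from 48-hour exposures of cells grown in 96-well plates, with endpoints linearly interpolated between the two concentrations bracketing the appropriate inhibition level. GI50 marks 50% less growth.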 Active and inactive are the calls of the source. No stated cut-off is given here; in the data, active = GI50 up to about 1.1 µM and inactive = higher.

Among the test systems are HL-60; SNB-75; TK-10; SN12C; HCT-15; UO-31; ACHN; UACC-62; T47D; SK-MEL-2; SW-620; HOP-92; SK-MEL-28; HCT-116; MCF7; KM-20L2; MDA-N; PC-3; UACC-257; U-251.
What all share (assay): NCI-60 cell line screen, 48 h

Regarding `COc1cccc2c1C(=O)c1c(O)c3c(c(O)c1C2=O)C[C@@](O)(/C(C)=N\O)C[C@@H]3OC1CC(N)C(O)C(C)O1` (stereo partly drawn), the GI50 with HL-60 is 0.218 µM (active); with SNB-75 it was 0.501 µM (active); with TK-10 it was 3.24 µM (inactive); in the test on SN12C it was 0.741 µM (active); in the test on HCT-15, 28.7 µM; in the test with UO-31, 10 µM (inactive). For the same compound, the GI50 with ACHN is 1.9 µM (inactive); with UACC-62 it was 1.12 µM (inactive); in the test with T47D, 0.723 µM (active); with SK-MEL-2, 1.1 µM (active); with SW-620 it was 0.504 µM (active); with HOP-92, 1.08 µM (active). The GI50 was 1.64 µM (inactive) with SK-MEL-28; 0.883 µM (active) with HCT-116; 0.289 µM (active) in the test on MCF7; 3 µM (inactive) with KM-20L2; 1.88 µM (inactive) with MDA-N; 1.36 µM (inactive) with PC-3. The figures for the GI50 in the test with UACC-257 and in the test on U-251 were 1.78 µM (inactive) and 0.766 µM (active), respectively.
`N#Cc1nc(Nc2ccc([N+](=O)[O-])cc2)sc1N`: the GI50 in the test on HL-60 was 3.53 µM (inactive); in the test with SNB-75, 39.4 µM (inactive); in the test on TK-10, 22.9 µM (inactive); with SN12C, 7.8 µM (inactive); in the test on HCT-15, 12.5 µM; in the test on UO-31, 7.38 µM (inactive). The GI50 in the test on ACHN is 9.62 µM (inactive); in the test with UACC-62, 15.8 µM (inactive); in the test with SK-MEL-2 it was 21.6 µM (inactive); in the test with SW-620, 20.5 µM (inactive); in the test with HOP-92, 27.3 µM (inactive); in the test with SK-MEL-28, 22.9 µM (inactive). In addition, the GI50 is 11.3 µM (inactive) in the test with HCT-116, 23.9 µM (inactive) with KM-20L2, 18.6 µM (inactive) with UACC-257 and 9.68 µM (inactive) in the test on U-251.
Regarding `COc1cccc2c1C(=O)c1c(O)c3c(c(O)c1C2=O)C[C@@](O)(C(=O)CO)CC3OC1CC(O)C(O)C(C)O1` (stereo partly drawn), the GI50 was 0.0267 µM (active) in the test on HL-60; 0.167 µM (active) in the test on SNB-75; 0.792 µM (active) in the test on TK-10; 0.115 µM (active) in the test on SN12C; 0.397 µM in the test on HCT-15; 0.421 µM (active) in the test on UO-31. Besides, the GI50 is 0.0527 µM (active) in the test on ACHN; 0.125 µM (active) in the test on UACC-62; 0.286 µM (active) in the test on T47D; 0.608 µM (active) with SK-MEL-2; 0.145 µM (active) with SW-620; 0.138 µM (active) in the test on HOP-92. The GI50 was 0.789 µM (active) with SK-MEL-28; 0.0553 µM (active) in the test with HCT-116; < 0.01 µM (active) in the test on MCF7; 0.592 µM (active) in the test on KM-20L2; 0.562 µM (active) with MDA-N; 0.274 µM (active) with PC-3. The GI50 is 0.453 µM (active) with UACC-257 and 0.0679 µM (active) in the test with U-251.
With `Cc1cccc(C)c1NC(=O)C(=O)Nn1c(NN)nc2ccccc2c1=O`, the GI50 in the test on HL-60 is > 100 µM (inactive); with SNB-75, > 100 µM (inactive); in the test on TK-10, > 100 µM (inactive); with SN12C, > 100 µM (inactive); in the test on HCT-15, more than 100 µM; in the test on UO-31, > 100 µM (inactive). The GI50 with ACHN, in the test on UACC-62, with SK-MEL-2, in the test with SW-620, in the test with HOP-92 and in the test with SK-MEL-28 was > 100 µM (inactive) in each case. The GI50 in the test on HCT-116, in the test on KM-20L2, with UACC-257 and with U-251 was > 100 µM (inactive) each time.
Take `Cc1cc(Cl)ccc1NC(=O)CCCC(=O)C1C/C(=N/O)CC/C1=N\O` (stereo not drawn): the GI50 with HL-60 is > 100 µM (inactive); in the test on SNB-75 it was > 100 µM (inactive); with TK-10, > 100 µM (inactive); in the test with SN12C it was > 100 µM (inactive); in the test with HCT-15 it was more than 100 µM; with UO-31, > 100 µM (inactive). For the same compound, the GI50 with ACHN, in the test on UACC-62, with SK-MEL-2, in the test with SW-620, with HOP-92 and in the test on SK-MEL-28 was > 100 µM (inactive) each time. The GI50 with HCT-116, in the test on KM-20L2, in the test with UACC-257 and with U-251 was > 100 µM (inactive) throughout.
Regarding `CC(=O)NCCCCCCNC(C)=O` [HEXAMETHYLENEBISACETAMIDE], the GI50 in the test with HL-60 was 3450 µM (inactive); in the test on SNB-75, 2840 µM (inactive); in the test with TK-10, 4300 µM (inactive); with SN12C, 7500 µM (inactive); in the test on HCT-15, 5530 µM; with UO-31 it was 5250 µM (inactive). The GI50 with ACHN was > 10000 µM (inactive); with UACC-62, 4050 µM (inactive); in the test on T47D it was > 5680 µM (inactive); in the test on SK-MEL-2, 6590 µM (inactive); in the test on SW-620 it was > 3570 µM (inactive); in the test on HOP-92 it was 3560 µM (inactive). Further, the GI50 in the test on SK-MEL-28 was 6980 µM (inactive); in the test with HCT-116 it was 8470 µM (inactive); in the test with MCF7 it was 3480 µM (inactive); in the test on KM-20L2, 5220 µM (inactive); with MDA-N, 7570 µM (inactive); in the test on PC-3 it was 8180 µM (inactive). Further, the figures for the GI50 with UACC-257 and in the test with U-251 were 7080 µM (inactive) and 7830 µM (inactive), respectively.
